IC50 data for 28 compounds are collected here from patent US9598423B2 (BRISTOL-MYERS SQUIBB COMPANY, priority 2013, dated 2017).

The target of experiment [1] is CK1δ (Homo sapiens (Human), UniProt P48730). Description: CK1δ kinase assay (Caliper LABCHIP electrophoretic separation of fluoresceinated peptide substrate and product). Conditions: 200 pM CK1δ, 50 μM ATP, 1.5 μM peptide substrate, 22 hours at room temperature; read-out: CK1δ (IC50). The format is biochemical. Summed up: (§1)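 Kinase reactions ran 22 h at room temperature, were stopped with EDTA, and phosphorylated product was separated electrophoretically from unphosphorylated fluoresceinated peptide. Compounds were tested at eleven concentrations from 10 mM DMSO stocks. IC50 by non-linear regression.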
Sequence of CK1δ (P48730 whole entry): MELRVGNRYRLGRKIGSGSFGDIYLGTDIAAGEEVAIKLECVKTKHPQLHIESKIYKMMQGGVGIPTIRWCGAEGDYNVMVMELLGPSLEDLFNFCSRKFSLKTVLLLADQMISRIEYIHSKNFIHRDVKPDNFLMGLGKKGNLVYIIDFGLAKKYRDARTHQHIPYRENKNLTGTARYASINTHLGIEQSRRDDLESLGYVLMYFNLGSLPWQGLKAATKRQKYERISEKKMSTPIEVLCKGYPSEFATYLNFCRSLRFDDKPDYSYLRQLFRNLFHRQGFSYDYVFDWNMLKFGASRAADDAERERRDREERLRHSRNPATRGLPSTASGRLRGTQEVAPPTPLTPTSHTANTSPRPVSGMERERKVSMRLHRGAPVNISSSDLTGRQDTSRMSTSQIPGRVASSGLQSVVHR

For experiment [2], the target named is CK1ε (Homo sapiens (Human), UniProt P49674). Description: CK1ε kinase assay (Caliper LABCHIP electrophoretic separation of fluoresceinated peptide substrate and product). The format is biochemical. Particulars: read-out: CK1ε (IC50). In a few lines:
as §1

Setting [3] is: 200 pM CK1ε, 50 μM ATP, 1.5 μM peptide substrate, 22 hours at room temperature.

As a reminder, the IC50 is the midpoint of a concentration-inhibition curve.

Read-outs that look alike come from different tables or passages of the source.

Sequence of CK1ε (P49674 whole entry): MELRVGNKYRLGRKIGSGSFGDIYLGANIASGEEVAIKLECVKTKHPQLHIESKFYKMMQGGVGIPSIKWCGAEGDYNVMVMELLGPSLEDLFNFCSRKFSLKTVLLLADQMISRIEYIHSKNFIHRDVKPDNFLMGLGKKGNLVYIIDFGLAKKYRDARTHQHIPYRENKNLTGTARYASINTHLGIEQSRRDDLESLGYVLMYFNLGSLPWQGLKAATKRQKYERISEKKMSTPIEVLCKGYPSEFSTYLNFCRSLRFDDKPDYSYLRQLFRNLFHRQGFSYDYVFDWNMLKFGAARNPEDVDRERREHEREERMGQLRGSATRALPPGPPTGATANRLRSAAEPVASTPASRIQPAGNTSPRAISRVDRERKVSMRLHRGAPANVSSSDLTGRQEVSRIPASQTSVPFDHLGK

Take `N#Cc1ccc(NC(=O)N2CCn3nc(-c4cc(F)c5cn[nH]c5c4)c(C(N)=O)c3C2)cc1Cl` [Compound 323, N^5-(3-Chloro-4-cyanophenyl)-2-(4-fluoro-1H-indazol-6-yl)-6,7-dihydropyrazolo[1,5-a]pyrazine-3,5(4H)-dicarboxamide]: the IC50 was in the range of 10 to 100 nM in experiment [1] and 0.01 to 10 nM in experiment [2] (setting [3]).
As for `Cc1cc(NC(=O)N2Cc3c(C(N)=O)c(-c4ccc(F)c(Cl)c4)nn3CC23CC3)ccc1C#N` [Compound 344, 2′-(3-Chloro-4-fluorophenyl)-N^5′-(4-cyano-3-methylphenyl)-4′H-spiro[cyclopropane-1,6′-pyrazolo[1,5-a]pyrazine]-3′,5′(7′H)-dicarboxamide], the IC50 in experiment [1] and in experiment [2] (setting [3]) was 0.01 to 10 nM throughout.
In the case of `Cc1cc(NC(=O)N2CCn3nc(-c4cc(F)c5cnn(C)c5c4)c(C(N)=O)c3C2)ccc1C#N` [compound 327], the IC50 in experiment [1] and in experiment [2] (setting [3]) was 0.01 to 10 nM in each case.
On to `NC(=O)c1c(-c2ccc(F)c(Cl)c2)nn2c1CN(C(=O)Nc1cccc(F)c1)CC2` [Compound 186, 2-(3-Chloro-4-fluorophenyl)-N^5-(3-fluorophenyl)-6,7-dihydropyrazolo[1,5-a] pyrazine-3,5(4H)-dicarboxamide], for which the IC50 in experiment [1] and in experiment [2] (setting [3]) was 0.01 to 10 nM throughout.
On to `N#Cc1ccc(NC(=O)N2Cc3c(C(N)=O)c(-c4ccc(F)c(Cl)c4)nn3CC2C2CC2)cc1` (centres unmarked) [Compound 341], for which the IC50 in experiment [1] and in experiment [2] (setting [3]) was 100 to 2000 nM throughout.
For the compound `CC(C)(C)NC(=O)N1CCn2nc(-c3cncc(Cl)c3)c(C(N)=O)c2C1` [Compound 148, N^5-(tert-Butyl)-2-(5-chloropyridin-3-yl)-6,7-dihydropyrazolo[1,5-a]pyrazine-3,5(4H)-dicarboxamide], the IC50 in experiment [1] and in experiment [2] (setting [3]) was 0.01 to 10 nM throughout.
As for `NC(=O)c1c(-c2cc(F)cc(Cl)c2)nn2c1CN(C(=O)Nc1ccc(Cl)c(Cl)c1)CC2` [Compound 217, 2-(3-Chloro-5-fluorophenyl)-N^5-(3,4-dichlorophenyl)-6,7-dihydropyrazolo[1,5-a] pyrazine-3,5(4H)-dicarboxamide], the IC50 in experiment [1] and in experiment [2] (setting [3]) was 0.01 to 10 nM in each case.
Regarding `CS(=O)(=O)c1cccc(-c2nn3c(c2C(N)=O)CN(C(=O)Nc2ccc(C#N)cc2)CC3)c1` [Compound 286, N^5-(4-Cyanophenyl)-2-(3-(methylsulfonyl)phenyl)-6,7-dihydropyrazolo[1,5-a] pyrazine-3,5(4H)-dicarboxamide], the IC50 in experiment [1] and in experiment [2] (setting [3]) was 100 to 2000 nM throughout.
Consider `COc1cccc(-c2nn3c(c2C(N)=O)CN(C(=O)NC(C)(C)C)CC3)c1` [Compound 109, N^5-(tert-Butyl)-2-(3-methoxyphenyl)-6,7-dihydropyrazolo[1,5-a]pyrazine-3,5(4H)-dicarboxamide], for which the IC50 in experiment [1] and in experiment [2] (setting [3]) was 0.01 to 10 nM throughout.
On to `NC(=O)c1ccc(NC(=O)N2CCn3nc(-c4ccc(F)c(Cl)c4)c(C(N)=O)c3C2)cc1` [Compound 180, N^5-(4-Carbamoylphenyl)-2-(3-chloro-4-fluorophenyl)-6,7-dihydropyrazolo[1,5-a] pyrazine-3,5(4H)-dicarboxamide], for which the IC50 in experiment [1] and in experiment [2] (setting [3]) was 0.01 to 10 nM in each case.
Take `N#Cc1ccc(NC(=O)N2Cc3c(C(N)=O)c(-c4ccc(F)c(Cl)c4)nn3CC2C2CC2)cc1` (single isomer, unassigned) [Compound 342]: the IC50 in experiment [1] and in experiment [2] (setting [3]) was 0.01 to 10 nM throughout.
With `CC1CN(C(=O)Nc2ccc(C#N)cc2)Cc2c(C(N)=O)c(-c3cccc(Cl)c3)nn21` (centres unmarked) [Compound A13, 2-(3-Chlorophenyl)-N^5-(4-cyanophenyl)-7-methyl-6,7-dihydropyrazolo[1,5-a]pyrazine-3,5(4H)-dicarboxamide], the IC50 in experiment [1] and in experiment [2] (setting [3]) was 0.01 to 10 nM throughout.
Turning to `Cc1cc(-c2nn3c(c2C(N)=O)CN(C(=O)Nc2ccc(C#N)cc2)CC3)ccc1F` [Compound 248, N^5-(4-Cyanophenyl)-2-(4-fluoro-3-methylphenyl)-6,7-dihydropyrazolo[1,5-a]pyrazine-3,5(4H)-dicarboxamide], the IC50 in experiment [1] and in experiment [2] (setting [3]) was 0.01 to 10 nM throughout.
Regarding `N#Cc1ccc(NC(=O)N2Cc3c(C(N)=O)c(-c4ccc(F)c(Cl)c4)nn3CC2C(F)(F)F)cc1` (single isomer, unassigned) [Compound 335, 2-(3-Chloro-4-fluorophenyl)-N^5-(4-cyanophenyl)-6-(trifluoromethyl)-6,7-dihydropyrazolo[1,5-a]pyrazine-3,5(4H)-dicarboxamide], the IC50 in experiment [1] and in experiment [2] (setting [3]) was 100 to 2000 nM in each case.
For the compound `Cc1cc(F)cc(-c2nn3c(c2C(N)=O)CN(C(=O)Nc2ccc(C#N)c(C(F)(F)F)c2)CC3)c1` [Compound 229, N^5-(4-Cyano-3-(trifluoromethyl)phenyl)-2-(3-fluoro-5-methylphenyl)-6,7-dihydropyrazolo[1,5-a] pyrazine-3,5(4H)-dicarboxamide], the IC50 in experiment [1] and in experiment [2] was 0.01 to 10 nM throughout.
With `NC(=O)c1c(-c2ccc(F)c(Cl)c2)nn2c1CN(C(=O)Nc1ccc(Cl)c(Cl)c1)CC2` [Compound 182, 2-(3-Chloro-4-fluorophenyl)-N^5-(3,4-dichlorophenyl)-6,7-dihydropyrazolo[1,5-a] pyrazine-3,5(4H)-dicarboxamide], the IC50 in experiment [1] and in experiment [2] (setting [3]) was 0.01 to 10 nM in each case.
In the case of `Cc1cc(NC(=O)N2CCn3nc(-c4cccc(Cl)c4)c(C(N)=O)c3C2)ccc1C#N` [Compound A38, 2-(3-Chlorophenyl)-N^5-(4-cyano-3-methylphenyl)-6,7-dihydropyrazolo[1,5-a]pyrazine-3,5(4H)-dicarboxamide], the IC50 in experiment [1] and in experiment [2] (setting [3]) was 0.01 to 10 nM each time.
With `NC(=O)c1c(-c2cccc(F)c2)nn2c1CN(C(=O)Nc1cccc(F)c1)CC2` [Compound 77, N^5,2-Bis(3-fluorophenyl)-6,7-dihydropyrazolo[1,5-a]pyrazine-3,5(4H)-dicarboxamide], the IC50 in experiment [1] and in experiment [2] (setting [3]) was 0.01 to 10 nM throughout.
For `NC(=O)c1c(-c2cccc(F)c2)nn2c1CN(C(=O)Nc1ccc(F)cc1)CC2` [Compound 16, 2-(3-Fluorophenyl)-N^5-(4-fluorophenyl)-6,7-dihydropyrazolo[1,5-a]pyrazine-3,5(4H)-dicarboxamide], the IC50 in experiment [1] and in experiment [2] (setting [3]) was 0.01 to 10 nM in each case.
With `C[C@H]1CN(C(=O)Nc2ccc(C#N)cc2)Cc2c(C(N)=O)c(-c3cccc(F)c3)nn21` (single isomer, unassigned) [Compound A78, N^5-(4-Cyanophenyl)-2-(3-fluorophenyl)-7-methyl-6,7-dihydropyrazolo[1,5-a]pyrazine-3,5(4H)-dicarboxamide], the IC50 in experiment [1] and in experiment [2] (setting [3]) was 0.01 to 10 nM each time.
With `Cc1cc(NC(=O)N2CCn3nc(-c4cc(Cl)c5[nH]ncc5c4)c(C(N)=O)c3C2)ccc1C#N` [Compound 317, 2-(7-Chloro-1H-indazol-5-yl)-N^5-(4-cyano-3-methylphenyl)-6,7-dihydropyrazolo[1,5-a]pyrazine-3,5(4H)-dicarboxamide], the IC50 in experiment [1] and in experiment [2] (setting [3]) was 0.01 to 10 nM in each case.
On to `NC(=O)c1c(-c2ccc(F)c(Cl)c2)nn2c1CN(C(=O)Nc1cc(C(F)(F)F)cc(C(F)(F)F)c1)CC2` [Compound 188, N^5-(3,5-Bis(trifluoromethyl)phenyl)-2-(3-chloro-4-fluorophenyl)-6,7-dihydropyrazolo[1,5-a] pyrazine-3,5(4H)-dicarboxamide], for which the IC50 in experiment [1] and in experiment [2] (setting [3]) was 0.01 to 10 nM in each case.
For the compound `NC(=O)c1c(-c2cccc(Cl)c2)nn2c1CN(C(=O)Nc1cc(Cl)cc(Cl)c1)CC2CO` (centres unmarked) [Compound A4, 2-(3-Chlorophenyl)-N^5-(3,5-dichlorophenyl)-7-(hydroxymethyl)-6,7-dihydropyrazolo[1,5-a]pyrazine-3,5(4H)-dicarboxamide], the IC50 in experiment [1] and in experiment [2] (setting [3]) was 0.01 to 10 nM throughout.
On to `N#Cc1ccc(NC(=O)N2CCn3nc(-c4cccc(Cl)c4Cl)c(C(N)=O)c3C2)cc1` [Compound 287, N^5-(4-Cyanophenyl)-2-(2,3-dichlorophenyl)-6,7-dihydropyrazolo[1,5-a] pyrazine-3,5(4H)-dicarboxamide], for which the values for the IC50 in experiment [1] and in experiment [2] (setting [3]) were 10 to 100 nM and 0.01 to 10 nM, respectively.
As to `CS(=O)(=O)c1ccc(NC(=O)N2CCn3nc(-c4ccc(F)c(Cl)c4)c(C(N)=O)c3C2)nc1` [Compound 195, 2-(3-Chloro-4-fluorophenyl)-N^5-(5-(methylsulfonyl)pyridin-2-yl)-6,7-dihydropyrazolo[1,5-a] pyrazine-3,5(4H)-dicarboxamide], the IC50 in experiment [1] and in experiment [2] (setting [3]) was 0.01 to 10 nM each time.
With `N#Cc1ccc(NC(=O)N2Cc3c(C(N)=O)c(-c4ccc(F)c(Cl)c4)nn3[C@H]3COC[C@H]32)cc1` [Compound 347, (5aS,8aR)-2-(3-Chloro-4-fluorophenyl)-N^5-(4-cyanophenyl)-5a,6,8,8a-tetrahydrofuro[3,4-e]pyrazolo[1,5-a]pyrazine-3,5(4H)-dicarboxamide], the IC50 in experiment [1] and in experiment [2] (setting [3]) was 0.01 to 10 nM in each case.
Take `N#Cc1ccc(NC(=O)N2Cc3c(C(N)=O)c(-c4ccc(Cl)c(Cl)c4)nn3[C@H]3COC[C@H]32)cc1` [Compound 349, (5aS,8aR)-N^5-(4-Cyanophenyl)-2-(3,4-dichlorophenyl)-5a,6,8,8a-tetrahydrofuro[3,4-e]pyrazolo[1,5-a]pyrazine-3,5(4H)-dicarboxamide]: the IC50 in experiment [1] and in experiment [2] (setting [3]) was 0.01 to 10 nM in each case.
`COc1ccc(NC(=O)N2CCn3nc(-c4ccc(F)c(Cl)c4)c(C(N)=O)c3C2)cc1C(F)(F)F` [Compound 189, 2-(3-Chloro-4-fluorophenyl)-N^5-(4-methoxy-3-(trifluoromethyl)phenyl)-6,7-dihydropyrazolo[1,5-a]pyrazine-3,5(4H)-dicarboxamide]: the IC50 in experiment [1] and in experiment [2] (setting [3]) was 0.01 to 10 nM each time.
